Experimental data from PubChem BioAssay (NCI).
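In this assay, cells in 96-well plates receive the compound at five concentrations for 48 hours. Endpoints are linearly interpolated between the surrounding concentrations. TGI marks complete inhibition of growth.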

How the values were obtained:
Experiment in all cases: NCI tumour cell line growth inhibition, 48 h
[1] = system: A498 renal
[2] = system: A549 NSCLC
[3] = system: KM12 colon
[4] = system: MCF7 breast
[5] = system: NCI-H23 lung
[6] = system: NCI-H460 lung
[7] = system: OVCAR-4 ovarian
[8] = system: OVCAR-5 ovarian
[9] = system: RPMI-8226 leukemia
[10] = system: UACC-62 melanoma

Measured: TGI

O=C1c2c(O)cccc2C(C2OC(CO)C(O)C(O)C2O)c2cc(CO)cc(O)c21 (stereo not given)
> 100 µM: [1] | [2] | [3] | [4] | [5] | [6] | [7] | [8] | [9] | [10]
